From PubChem BioAssay AID2060890 (Molecular Pharmacology Branch, DTP, NCI, 2025)

System: LG0703-F948-PDC complex spheroid viability
Experiment: Anticancer human tumor LG0703-F948-PDC patient-derived lung adenocarcinoma cell line growth inhibition [RAS]
Settings: for IC50: curve of first compound; for viability, T/C: stronger effect = lower value
Summary of the method: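 Agents were tested in combination matrices in half-log decrements from a top concentration at or near clinical Cmax (10 microM if undetermined). Targets were multi-cell spheroids of tumour lines plus HUVEC and MSC stromal cells.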
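Further: spheroids exposed to agents for 7 days.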
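Wherever viability, T/C is given: 100% = DMSO vehicle wells.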

SMILES: C=CC(=O)Nc1cc(Nc2nccc(-c3cn(C)c4ccccc34)n2)c(OC)cc1N(C)CCN(C)C + C#Cc1c(F)ccc2cc(O)cc(-c3ncc4c(N5CC6CCC(C5)N6)nc(OCC56CCCN5CC(F)C6)nc4c3F)c12
- IC50 (second compound 0.0316 µM): 11 nM
- IC50 (second compound 0.1 µM): 9.22 nM
- IC50 (second compound 0.316 µM): 6.02 nM
- IC50 (second compound 1 µM): 4.22 nM
- IC50 (second compound 3.16 µM): < 3.16 nM
- IC50 (second compound 10 µM): < 3.16 nM
- viability, T/C (second compound 0.0316 µM, first compound 0.00316 µM): 96.5%
- viability, T/C (second compound 0.0316 µM, first compound 0.01 µM): 53%
- viability, T/C (second compound 0.0316 µM, first compound 0.0316 µM): 17.6%
- viability, T/C (second compound 0.0316 µM, first compound 0.1 µM): 12.5%
- viability, T/C (second compound 0.0316 µM, first compound 0.316 µM): 11.1%
- viability, T/C (second compound 0.0316 µM, first compound 1 µM): 8.76%
- viability, T/C (second compound 0.1 µM, first compound 0.00316 µM): 84.3%
- viability, T/C (second compound 0.1 µM, first compound 0.01 µM): 47.4%
- viability, T/C (second compound 0.1 µM, first compound 0.0316 µM): 15.8%
- viability, T/C (second compound 0.1 µM, first compound 0.1 µM): 14%
- viability, T/C (second compound 0.1 µM, first compound 0.316 µM): 13.8%
- viability, T/C (second compound 0.1 µM, first compound 1 µM): 8.56%
- viability, T/C (second compound 0.316 µM, first compound 0.00316 µM): 69.2%
- viability, T/C (second compound 0.316 µM, first compound 0.01 µM): 34.9%
- viability, T/C (second compound 0.316 µM, first compound 0.0316 µM): 15.6%
- viability, T/C (second compound 0.316 µM, first compound 0.1 µM): 11.2%
- viability, T/C (second compound 0.316 µM, first compound 0.316 µM): 10.1%
- viability, T/C (second compound 0.316 µM, first compound 1 µM): 8.31%
- viability, T/C (second compound 1 µM, first compound 0.00316 µM): 56.2%
- viability, T/C (second compound 1 µM, first compound 0.01 µM): 31.5%
- viability, T/C (second compound 1 µM, first compound 0.0316 µM): 14.2%
- viability, T/C (second compound 1 µM, first compound 0.1 µM): 10.2%
- viability, T/C (second compound 1 µM, first compound 0.316 µM): 9.15%
- viability, T/C (second compound 1 µM, first compound 1 µM): 7.05%
- viability, T/C (second compound 3.16 µM, first compound 0.00316 µM): 48.8%
- viability, T/C (second compound 3.16 µM, first compound 0.01 µM): 25%
- viability, T/C (second compound 3.16 µM, first compound 0.0316 µM): 10.1%
- viability, T/C (second compound 3.16 µM, first compound 0.1 µM): 11.4%
- viability, T/C (second compound 3.16 µM, first compound 0.316 µM): 8.78%
- viability, T/C (second compound 3.16 µM, first compound 1 µM): 6.8%
- viability, T/C (second compound 10 µM, first compound 0.00316 µM): 33.5%
- viability, T/C (second compound 10 µM, first compound 0.01 µM): 10.2%
- viability, T/C (second compound 10 µM, first compound 0.0316 µM): 10.5%
- viability, T/C (second compound 10 µM, first compound 0.1 µM): 7.37%
- viability, T/C (second compound 10 µM, first compound 0.316 µM): 6.33%
- viability, T/C (second compound 10 µM, first compound 1 µM): 4.43%
